Assay results taken from patent US20050043289A1, “Crystalline hydrochloride of 7-(((5-amino-1,2,4-thiadiazol-3-yl) (fluoromethoxyimino)acetyl)amino)-3-((imino-1-piperazinylmethyl)methylhydrazono)-methyl-3-cephem-4-carboxylic acid” (priority 2002, published 2005).
In brackets after ≈: the same amount, converted by molar mass. Structures can show the parent of a compound that is named as a salt. Where two headings read alike, the source gives them in different places.

How the values were obtained:
[1] = stability in aqueous solution; assay type: physicochemical; conditions: pH values of 3-5, 5° C.
[2] = storage stability in solid form; assay type: physicochemical; conditions: e.g. at 5° C.
solubility in water = assay type: physicochemical
Excerpt: Thus, a compound of the present invention is appropriate for pharmaceutical administration.

Enterobacter cloacae = assay: MIC, Agar Dilution Test and/or Micro Dilution Test (NCCLS); assay type: cell-based; conditions: against Enterobacter cloacae
[3] = tested on: multi-drug resistant Pneumococcus; assay: as above; assay type: cell-based; conditions: Streptococcus pneumoniae; against multi-drug resistant Pneumococcus
Excerpt: (§1) In particular, the compounds of the present invention show antimicrobial, e.g. antibacterial activity against aerobic and anaerobic growing bacteria, e.g. gram negative and gram positive bacteria such as Enterobacter, e.g. Enterobacter cloacae; Enterococcus, e.g. Enterococcus faecalis; Moraxella, e.g. Moraxella catarrhalis; Haemophilus, e.g. Haemophilus influenza; Klebsiella, e.g. Klebsiella edwardsii, Klebsiella pneumoniae; Streptococcus, e.g. Streptococcus pyogenes; Staphylococcus, e.g. Staphylococcus aureus MSSA (methicillin sensitive strains); Staphylococcus aureus MRSA (methicillin resistant strains); Escherichia coli; Proteus, e.g. Proteus mirabilis; Salmonella, e.g. Salmonella typhimurium; Serratia, e.g. Serratia marcescens; Pneumococci, e.g. Streptococcus pneumoniae (penicillin resistant and multi-drug resistant strains); in vitro in the Agar Dilution Test and/or Micro Dilution Test for bacteria according to National Committee for Clinical Laboratory Standards (NCCLS) 1993, • Document M7-A3, Vol. 13, No.25: “Methods for dilution Antimicrobial Susceptibility Tests for Bacteria that Grow Aerobically”—Third Edition, Approved Standard”; and • Document M11 -A3 for anaerobic bacteria in a concentration from about 0.001 to about […] (MIC), e.g. using strains including Staphylococcus aureus (ATCC 29213 and ATCC 9144); Enterococcus faecalis (ATCC 29212); Haemophilus influenza (NTCC 49247 and NCTC 11931); Escherichia coli (ATCC 25922 and ATCC 35218); Klebsiella pneumoniae (NCTC 11228); Klebsiella edwardsii (NCTC 10896); and in vivo in the septicaemia mouse model, in accordance to the method description Nr. […] E.g., mice are infected with an ED 95% of Staphylococcus aureus (ATCC 4995), Streptococcus pyogenes (ATCC 29218), Escherichia coli (Δ 12 NFI culture collection) and are treated 1.5 and 24 hours after infection. The ED 50% values ranging form ca. 0.2 to 50 mg/kg body weight are calculated by Probit analysis of the administered dosages of compounds. Activity is determined by numbers of surviving animals per group of 8 mice per dosage unit day 5 after infection. The compounds of the invention show an surprising overall activity spectrum.

[4] = tested on: Staphylococcus aureus (MSSA); assay: as above; assay type: cell-based; conditions: against Staphylococcus aureus (MSSA)
Excerpt: as §1

[5] = tested on: methicillin resistant Staphylococcus aureus; assay: as above; assay type: cell-based; conditions: against methicillin resistant Staphylococcus aureus
Excerpt: as §1

Enterococcus faecalis = assay: as above; assay type: cell-based; conditions: against Enterococcus faecalis
Excerpt: as §1

[6] = water uptake in presence of environmental moisture (stress test) / water content constancy; assay type: physicochemical; conditions: Karl Fischer, over 6 weeks
Excerpt: A monohydrochloride, produced according to the present invention, may be obtained in the form of a trihydrate, which, after appropriate drying, has a water content of ca. 7% to 10%, such as 7.3% to 9.6% (theory: 8.2%). The monohydrochloride in the form of a trihydrate may be dried, e.g. over P2O5, to a water content of 1.5%. […] The chloride content of the monohydrochloride in the form of a trihydrate is between 5% and 6% (theory: 5.5%).
Water content (Karl Fischer): 9.6%. […] HCl (titration): 5.5%. Isopropanol-content: 0.05%. Content of a compound of formula I (based on the free base): […]. pH and [β]^20D of a 1% solution in water: pH: 4.3; [β]^20589=−167±1°

In the case of `CN(/N=C/C1=C(C(=O)O)N2C(=O)[C@@H](NC(=O)/C(=N\OCF)c3nsc(N)n3)C2SC1)C(=N)N1CCNCC1` (stereo partly shown), the “stability in aqueous solution” value [1] is reported as “remains stable for at least one week”, the “storage time with practically no or only slight decomposition” value [2] is reported as “at least 4 weeks” and the solubility (solubility in water; in water at 5°C.) is reported as ≥ 2 % (w/v). It also gave a solubility (solubility in water; in water at room temperature, read-out: solubility) of ~100 mg/mL (≈ 176 mM).
Work on `CN(/N=C/C1=C(C(=O)O)N2C(=O)[C@@H](NC(=O)/C(=N\OCF)c3nsc(N)n3)C2SC1)C(=N)N1CCNCC1` (stereo partly shown) [Example 2, 7-{[(5-amino-1,2,4-thiadiazol-3-yl)-(Z)-(fluoromethoxyimino)acetyl]amino}-3-[(imino-1-piperazinylmethyl)methylhydrazono]-methyl-3-cephem-4-carboxylic acid in the form of a monohydrochloride and in the form of a trihydrate] yielded an MIC (Enterobacter cloacae) of 0.025 to 12.8 µg/mL, an MIC [3] of 0.4 to 0.8 µg/mL and an MIC [4] of 0.2 to 0.8 µg/mL. The MIC [5] was 0.8 to 12.6 µg/mL, the MIC (Enterococcus faecalis) was 0.1 to 0.8 µg/mL and the water content constancy [6] was “Water content constant (±6%) over 6 weeks”.
